Reference: patent US20250325485A1, “STABLE COMPOSITIONS OF FOXY-5 HEXAPEPTIDE WITH HIGH SOLUBILITY” (WNTRESEARCH AB, priority 2021, published 2025)
Counter-ions that a name gives are not always drawn. Peptide text beside a SMILES is read from it. * marks the point of attachment. For = O=C*

assay: FIG. 10
Protocol: Table printed on a drawing sheet, FIG. 10
The patent's description of the figure: FIG. 10
First reader's note: Storage stability of Foxy-5 free acid and its salts shown as HPLC purity and impurity levels (Ala, aspartimide, dimer) initially and after 2 and 4 weeks at 40°C; decimal commas as printed.

SMILES	After 2 weeks @ 40°C | Ala (area%)	After 2 weeks @ 40°C | Aspartimide (area%)	After 2 weeks @ 40°C | Dimer (area%)	After 2 weeks @ 40°C | HPLC purity (area%)	After 4 weeks @ 40°C | Ala (area%)	After 4 weeks @ 40°C | Aspartimide (area%)	After 4 weeks @ 40°C | Dimer (area%)	After 4 weeks @ 40°C | HPLC purity (area%)
CSCC[C@H](NC=O)C(=O)N[C@@H](CC(=O)O)C(=O)NCC(=O)N[C@@H](CS)C(=O)N[C@@H](CCC(=O)O)C(=O)N[C@@H](CC(C)C)C(=O)O [TRO Tri salt] (For-MDGCEL-OH)	0 area%	8,24 area%	0,63 area%	87,27 area%	0,00 area%	11,40 area%	1,28 area%	78,60 area%
CSCC[C@H](NC=O)C(=O)N[C@@H](CC(=O)O)C(=O)NCC(=O)N[C@@H](CS)C(=O)N[C@@H](CCC(=O)O)C(=O)N[C@@H](CC(C)C)C(=O)O [Foxy-5 free acid] (For-MDGCEL-OH)	0 area%	0,75 area%	0,00 area%	98,40 area%	0,00 area%	0,80 area%	0,00 area%	98,21 area%
CSCC[C@H](NC=O)C(=O)N[C@@H](CC(=O)O)C(=O)NCC(=O)N[C@@H](CS)C(=O)N[C@@H](CCC(=O)O)C(=O)N[C@@H](CC(C)C)C(=O)O [NH3 Tri salt] (For-MDGCEL-OH)	0 area%	4,10 area%	2,95 area%	88,64 area%	0,00 area%	3,88 area%	3,37 area%	86,45 area%
CSCC[C@H](NC=O)C(=O)N[C@@H](CC(=O)O)C(=O)NCC(=O)N[C@@H](CS)C(=O)N[C@@H](CCC(=O)O)C(=O)N[C@@H](CC(C)C)C(=O)O [NMG Di salt] (For-MDGCEL-OH)	0 area%	3,85 area%	0,93 area%	93,22 area%	0,00 area%	6,17 area%	0,81 area%	91,23 area%
CSCC[C@H](NC=O)C(=O)N[C@@H](CC(=O)O)C(=O)NCC(=O)N[C@@H](CS)C(=O)N[C@@H](CCC(=O)O)C(=O)N[C@@H](CC(C)C)C(=O)O [HIS Di salt] (For-MDGCEL-OH)	0 area%	1,97 area%	0,00 area%	97,40 area%	0,00 area%	2,40 area%	0,00 area%	96,52 area%
CSCC[C@H](NC=O)C(=O)N[C@@H](CC(=O)O)C(=O)NCC(=O)N[C@@H](CS)C(=O)N[C@@H](CCC(=O)O)C(=O)N[C@@H](CC(C)C)C(=O)O [LYS Tri salt] (For-MDGCEL-OH)	4,25 area%	1,10 area%	1,80 area%	92,29 area%	8,45 area%	1,26 area%	3,40 area%	84,97 area%
CSCC[C@H](NC=O)C(=O)N[C@@H](CC(=O)O)C(=O)NCC(=O)N[C@@H](CS)C(=O)N[C@@H](CCC(=O)O)C(=O)N[C@@H](CC(C)C)C(=O)O [NMG Tri salt] (For-MDGCEL-OH)	0 area%	1,76 area%	1,13 area%	95,97 area%	0,00 area%	3,06 area%	0,82 area%	95,14 area%
CSCC[C@H](NC=O)C(=O)N[C@@H](CC(=O)O)C(=O)NCC(=O)N[C@@H](CS)C(=O)N[C@@H](CCC(=O)O)C(=O)N[C@@H](CC(C)C)C(=O)O [TRO Di salt] (For-MDGCEL-OH)	0 area%	2,75 area%	0,00 area%	96,51 area%	0,00 area%	4,20 area%	0,60 area%	93,87 area%
CSCC[C@H](NC=O)C(=O)N[C@@H](CC(=O)O)C(=O)NCC(=O)N[C@@H](CS)C(=O)N[C@@H](CCC(=O)O)C(=O)N[C@@H](CC(C)C)C(=O)O [DEA Tri salt] (For-MDGCEL-OH)	1,91 area%	5,78 area%	8,10 area%	82,51 area%	1,82 area%	7,20 area%	5,80 area%	80,92 area%
CSCC[C@H](NC=O)C(=O)N[C@@H](CC(=O)O)C(=O)NCC(=O)N[C@@H](CS)C(=O)N[C@@H](CCC(=O)O)C(=O)N[C@@H](CC(C)C)C(=O)O [LYS Di salt] (For-MDGCEL-OH)	0 area%	2,50 area%	0,00 area%	97,06 area%	0,47 area%	2,80 area%	0,55 area%	95,17 area%
